According to US9750677B2, “Use of metal complexes which are mimetics of SOD as food agents and as cosmetics” (Universitat de València, priority 2014, dated 2017):
Several values for one entry are separate records, joined by “and”; a condition that tells them apart may be missing. Identical values can stand only once.

Tested on: Medaka embryos
Assay: Survival analysis using Medaka fish embryos, mortality at 72 hours in H2O2
Format: in vivo, Medaka (Oryzias latipes)
Details: stage 8 embryos pre-treated 4 days with 100 μM vitamin C, then 72 hours in 22.5 mM H2O2; for mortality, mean (± standard error in text): 6 replicates
Experimental: Individual adults (strain Cab, Carolina Biological Supply, (North Carolina)), were held in tanks with continuous water flow at 27° C., and a photoperiod of 14 hours of light and 10 hours of darkness. The fish were fed twice a day with Artemia nauplii, which were hatched daily from commercial Sanders® cysts, and with dry food once per day.
Fertilized eggs were collected daily, deposited in Yamamoto solution (0.13 M NaCl, 2.7 mM KCl, 1.8 mM CaCl2 and 0.24 mM NaHCO3, pH 7.3) (Yamamoto T., Medaka (killifish): Biology and strains. 1975, Tokyo: Keigaku Pub. Co), and were kept in the incubator at 26° C. The embryo stage was determined according to the description of Iwamatsu (Iwamatsu T., Stages of normal development in the medaka Oryzias latipes. Mech Dev. 2004, Vol. 121, pages 605-618).
Medaka embryos that were in stage 8 (early morula stage, Iwamatsu, 2004) were separated into 2 groups of 60 embryos and one group of 30 embryos. A group of 60 embryos were treated for 4 days with Pytren-4Q+Mn dissolved in Yamamoto solution at a concentration of 250 μM. The other group of 60 embryos were incubated for 4 days in Yamamoto solution. This group was used as a negative control. The group of 30 embryos, positive control group, were treated for 4 days with a Yamamoto solution of vitamin C, an antioxidant compound, at a concentration of 100 μM. After 4 days of incubation, the embryos were washed with Yamamoto solution. The groups of 60 embryos were separated one by one into two groups of 30 embryos. The embryos of all the groups were individually placed into the wells of 96-well plates, each well containing 200 μl of Yamamoto solution with H2O2, at different concentrations depending on the extension of incubation time at which mortality was observed. […] Thirty embryos of each initial group of 60 embryos and the 30 embryos of the group treated with vitamin C were treated with H2O2 Yamamoto solution at a concentration of 22.5 mM. […] Thirty embryos of each initial group of 60 embryos were treated with H2O2 Yamamoto solution at a concentration of 7.5 mM. […]

O=C1O[C@H]([C@@H](O)CO)C(O)=C1O [vitamin C]
mortality, mean (± standard error in text): 25.99±5.25% | mortality, mean (± standard error in text) (listed as Vitamin C): 25.99% | mortality, single replicates (30 embryos per replicate): 14.3% and 20.8% (2×) and 40.63% and 43.75% and 15.63%
